Assay results reported in patent US12275731B2, “Azaindole inhibitors of wild-type and mutant forms of LRRK2” (DANA-FARBER CANCER INSTITUTE, INC., priority 2018, dated 2025).

Tests used:
Test in all cases: KinomeScan profiling
Format in all cases: binding
CAMK1D = CAMK1D (Homo sapiens, UniProt Q8IU85); conditions: read-out: % control
Method in brief: (§1)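 At 1 μM in DMSO, compounds are run through a broad 468-member kinase panel. The luminescent read-out is normalised so that vehicle gives 100% and a positive control gives 0%; any kinase falling below 35% is treated as a target.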

FLT3(D835H) = target: T1, FLT3(D835H) (Homo sapiens, UniProt P36888, D835H); conditions: read-out: % control
T1 sequence (P36888 27-993 D835H): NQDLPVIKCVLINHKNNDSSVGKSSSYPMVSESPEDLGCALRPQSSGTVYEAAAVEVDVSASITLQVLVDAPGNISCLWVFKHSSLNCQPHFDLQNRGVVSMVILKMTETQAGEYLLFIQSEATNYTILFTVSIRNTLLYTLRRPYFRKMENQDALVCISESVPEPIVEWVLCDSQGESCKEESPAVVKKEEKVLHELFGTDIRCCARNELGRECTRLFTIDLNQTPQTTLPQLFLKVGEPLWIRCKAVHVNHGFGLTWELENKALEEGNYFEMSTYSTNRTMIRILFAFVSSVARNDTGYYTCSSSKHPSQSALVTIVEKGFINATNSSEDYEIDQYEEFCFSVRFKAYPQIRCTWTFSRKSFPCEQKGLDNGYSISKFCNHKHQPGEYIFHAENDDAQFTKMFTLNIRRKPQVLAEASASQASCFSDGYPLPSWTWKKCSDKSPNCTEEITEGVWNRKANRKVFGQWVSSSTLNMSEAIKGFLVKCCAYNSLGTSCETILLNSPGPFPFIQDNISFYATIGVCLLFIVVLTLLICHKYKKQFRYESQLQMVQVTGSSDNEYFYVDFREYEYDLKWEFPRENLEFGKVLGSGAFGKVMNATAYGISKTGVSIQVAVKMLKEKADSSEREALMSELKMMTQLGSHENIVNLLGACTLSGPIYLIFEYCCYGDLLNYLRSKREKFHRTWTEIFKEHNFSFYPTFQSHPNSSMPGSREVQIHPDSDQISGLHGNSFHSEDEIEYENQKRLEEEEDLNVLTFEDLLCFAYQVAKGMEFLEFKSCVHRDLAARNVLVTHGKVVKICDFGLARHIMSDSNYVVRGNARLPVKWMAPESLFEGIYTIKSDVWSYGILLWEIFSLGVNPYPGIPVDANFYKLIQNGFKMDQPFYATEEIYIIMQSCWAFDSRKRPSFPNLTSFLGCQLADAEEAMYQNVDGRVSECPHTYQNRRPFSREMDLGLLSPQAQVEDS
Method in brief: as §1

PCTK3 = PCTK3 (Homo sapiens, UniProt Q07002); conditions: PCTK3, 1 μM; read-out: % control
Method in brief: as §1

PRKD2 = target: T2, PRKD2 (Homo sapiens, UniProt Q9BZL6); conditions: PRKD2, 1 μM; read-out: % control
T2 sequence (Q9BZL6 1-878): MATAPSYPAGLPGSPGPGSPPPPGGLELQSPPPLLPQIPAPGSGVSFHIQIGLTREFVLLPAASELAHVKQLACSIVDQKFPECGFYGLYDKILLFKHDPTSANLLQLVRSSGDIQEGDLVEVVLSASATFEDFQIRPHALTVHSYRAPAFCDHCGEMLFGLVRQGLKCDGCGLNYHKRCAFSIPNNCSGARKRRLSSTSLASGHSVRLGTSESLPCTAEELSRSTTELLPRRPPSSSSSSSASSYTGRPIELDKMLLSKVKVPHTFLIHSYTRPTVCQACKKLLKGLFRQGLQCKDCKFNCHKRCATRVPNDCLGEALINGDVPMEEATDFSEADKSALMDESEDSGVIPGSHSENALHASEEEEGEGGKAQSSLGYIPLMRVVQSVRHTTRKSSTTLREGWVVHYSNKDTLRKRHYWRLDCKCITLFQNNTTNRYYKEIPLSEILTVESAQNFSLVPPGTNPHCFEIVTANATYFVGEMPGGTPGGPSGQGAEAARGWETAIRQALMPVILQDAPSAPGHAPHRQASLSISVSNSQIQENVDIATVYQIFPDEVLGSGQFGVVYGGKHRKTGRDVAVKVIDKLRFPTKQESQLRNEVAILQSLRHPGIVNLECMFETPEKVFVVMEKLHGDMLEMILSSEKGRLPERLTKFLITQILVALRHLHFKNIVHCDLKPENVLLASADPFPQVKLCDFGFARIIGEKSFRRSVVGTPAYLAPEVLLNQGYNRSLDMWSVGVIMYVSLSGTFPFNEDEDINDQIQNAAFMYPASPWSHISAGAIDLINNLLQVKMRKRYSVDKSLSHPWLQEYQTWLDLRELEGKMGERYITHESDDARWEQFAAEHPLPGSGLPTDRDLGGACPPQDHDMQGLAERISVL
Method in brief: as §1

RET(V804L) = RET(V804L) (Homo sapiens, UniProt P07949, V804L); conditions: read-out: % control
Method in brief: as §1

[1] = target: T3, RSK4(Kin.Dom.1-N-terminal) (Homo sapiens, UniProt Q9UK32); conditions: read-out: % control
T3 construct: ribosomal S6 Kinase 4 (RSK4)(Kin.Dom.1-N-terminal)
Method in brief: as §1

Chain of RET(V804L) (P07949 29-1114 V804L): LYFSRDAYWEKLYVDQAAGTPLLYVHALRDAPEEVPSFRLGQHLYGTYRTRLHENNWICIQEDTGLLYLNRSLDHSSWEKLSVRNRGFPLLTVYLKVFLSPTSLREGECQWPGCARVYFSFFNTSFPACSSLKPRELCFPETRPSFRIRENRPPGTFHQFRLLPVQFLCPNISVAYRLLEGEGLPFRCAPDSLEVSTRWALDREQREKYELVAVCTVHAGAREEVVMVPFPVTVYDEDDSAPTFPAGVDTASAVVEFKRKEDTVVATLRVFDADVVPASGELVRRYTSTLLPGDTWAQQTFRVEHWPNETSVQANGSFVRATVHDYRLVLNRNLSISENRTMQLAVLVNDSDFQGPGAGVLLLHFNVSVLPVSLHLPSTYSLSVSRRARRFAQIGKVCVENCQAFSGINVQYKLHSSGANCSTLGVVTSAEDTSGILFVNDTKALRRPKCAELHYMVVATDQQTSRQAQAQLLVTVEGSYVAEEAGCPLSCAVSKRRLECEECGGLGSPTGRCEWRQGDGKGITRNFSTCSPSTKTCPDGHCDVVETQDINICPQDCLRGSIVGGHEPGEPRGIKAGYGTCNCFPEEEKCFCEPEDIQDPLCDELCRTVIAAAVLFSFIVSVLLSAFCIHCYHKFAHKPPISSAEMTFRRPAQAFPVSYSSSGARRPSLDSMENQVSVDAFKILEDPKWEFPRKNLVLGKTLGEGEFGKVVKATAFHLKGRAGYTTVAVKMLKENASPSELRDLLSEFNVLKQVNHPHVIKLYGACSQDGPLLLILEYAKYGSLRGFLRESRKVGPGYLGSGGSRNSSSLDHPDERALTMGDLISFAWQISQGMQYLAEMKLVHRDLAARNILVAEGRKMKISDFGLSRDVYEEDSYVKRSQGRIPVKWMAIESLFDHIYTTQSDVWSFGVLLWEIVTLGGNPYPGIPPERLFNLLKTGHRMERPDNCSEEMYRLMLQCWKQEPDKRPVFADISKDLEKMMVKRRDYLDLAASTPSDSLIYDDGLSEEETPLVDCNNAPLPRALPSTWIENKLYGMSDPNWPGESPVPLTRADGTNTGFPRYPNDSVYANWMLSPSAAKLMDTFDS
Chain of CAMK1D (Q8IU85 whole entry): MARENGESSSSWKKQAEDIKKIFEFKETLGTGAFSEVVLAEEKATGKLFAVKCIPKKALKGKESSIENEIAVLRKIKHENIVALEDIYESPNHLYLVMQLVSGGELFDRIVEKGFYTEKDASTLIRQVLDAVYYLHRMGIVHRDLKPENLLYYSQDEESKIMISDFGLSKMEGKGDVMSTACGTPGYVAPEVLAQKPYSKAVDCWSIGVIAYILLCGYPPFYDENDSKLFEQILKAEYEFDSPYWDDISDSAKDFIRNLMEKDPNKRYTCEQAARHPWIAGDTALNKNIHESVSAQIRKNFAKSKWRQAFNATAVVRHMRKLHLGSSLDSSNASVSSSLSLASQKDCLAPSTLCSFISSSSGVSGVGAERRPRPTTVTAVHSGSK
Chain of PCTK3 (Q07002 whole entry): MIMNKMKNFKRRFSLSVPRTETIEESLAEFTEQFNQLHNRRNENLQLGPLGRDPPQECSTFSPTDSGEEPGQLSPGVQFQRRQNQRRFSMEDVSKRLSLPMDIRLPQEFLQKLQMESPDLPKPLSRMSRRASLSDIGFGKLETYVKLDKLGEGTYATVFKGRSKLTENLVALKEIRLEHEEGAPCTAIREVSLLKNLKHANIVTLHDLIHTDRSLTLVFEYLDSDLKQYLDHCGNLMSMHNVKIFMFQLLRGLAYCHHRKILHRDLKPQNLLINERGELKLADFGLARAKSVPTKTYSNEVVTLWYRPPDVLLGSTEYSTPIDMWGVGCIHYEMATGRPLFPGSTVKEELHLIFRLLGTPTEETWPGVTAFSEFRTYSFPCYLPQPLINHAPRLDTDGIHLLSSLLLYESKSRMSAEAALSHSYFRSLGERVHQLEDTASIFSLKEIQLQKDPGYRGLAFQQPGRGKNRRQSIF
T3 sequence (Q9UK32 73-330 limits assumed): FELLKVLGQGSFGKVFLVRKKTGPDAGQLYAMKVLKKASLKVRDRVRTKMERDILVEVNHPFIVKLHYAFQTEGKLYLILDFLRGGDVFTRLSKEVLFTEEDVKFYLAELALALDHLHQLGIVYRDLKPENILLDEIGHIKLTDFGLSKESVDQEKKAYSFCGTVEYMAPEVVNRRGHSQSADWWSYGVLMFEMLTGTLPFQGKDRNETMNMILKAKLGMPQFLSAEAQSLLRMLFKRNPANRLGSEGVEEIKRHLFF

Q: With `O=C(c1ccc(-c2cnc3[nH]cc(Cl)c3c2NC2CCCC2)cc1)N1CCC(N2CCOCC2)CC1` [Compound 101, (4-(3-chloro-4-(cyclopentylamino)-1H-pyrrolo[2,3-b]pyridin-5-yl)phenyl)(4-morpholinopiperidin-1-yl)methanone] as the compound, how does the remaining binding at 1 µM (CAMK1D) read?
A: The remaining binding at 1 µM was 100%.

Q: And the remaining binding at 1 µM (FLT3(D835H))?
A: The remaining binding at 1 µM was 41%.

Q: What about the remaining binding at 1 µM (PCTK3) of the same compound?
A: The remaining binding at 1 µM was 96%.

Q: And the remaining binding at 1 µM (PRKD2)?
A: The remaining binding at 1 µM was 59%.

Q: What about the remaining binding at 1 µM (RET(V804L)) of the same compound?
A: The remaining binding at 1 µM was 97%.

Q: What about the remaining binding at 1 µM [1] of the same compound?
A: Its remaining binding at 1 µM is 100%.

Q: `CNc1c(-c2cnn([C@H]3CCN(C(C)=O)C[C@@H]3F)c2)cnc2[nH]cc(Cl)c12` [Compound 77, 1-((3S,4S)-4-(4-(3-chloro-4-(methylamino)-1H-pyrrolo[2,3-b]pyridin-5-yl)-1H-pyrazol-1-yl)-3-fluoropiperidin-1-yl)ethan-1-one] was tested. Which remaining binding at 1 µM (CAMK1D) did it give?
A: The remaining binding at 1 µM was 85%.

Q: And the remaining binding at 1 µM (FLT3(D835H))?
A: The remaining binding at 1 µM was 7.9%.

Q: What about the remaining binding at 1 µM (PCTK3) of the same compound?
A: The remaining binding at 1 µM was 100%.

Q: What about the remaining binding at 1 µM (PRKD2) of the same compound?
A: Its remaining binding at 1 µM is 90%.

Q: And the remaining binding at 1 µM (RET(V804L))?
A: The remaining binding at 1 µM was 45%.

Q: And the remaining binding at 1 µM [1]?
A: Its remaining binding at 1 µM is 32%.

Q: With `CNc1c(-c2ccc(C(=O)N3CCC(N4CCOCC4)CC3)cc2)cnc2[nH]cc(Cl)c12` [Compound 96, (4-(3-chloro-4-(methylamino)-1H-pyrrolo[2,3-b]pyridin-5-yl)phenyl)(4-morpholinopiperidin-1-yl)methanone] as the compound, how does the remaining binding at 1 µM (CAMK1D) read?
A: Its remaining binding at 1 µM is 69%.

Q: And the remaining binding at 1 µM (FLT3(D835H))?
A: The remaining binding at 1 µM was 9.9%.

Q: And the remaining binding at 1 µM (PCTK3)?
A: Its remaining binding at 1 µM is 100%.

Q: What about the remaining binding at 1 µM (PRKD2) of the same compound?
A: The remaining binding at 1 µM was 13%.

Q: What about the remaining binding at 1 µM (RET(V804L)) of the same compound?
A: The remaining binding at 1 µM was 59%.

Q: And the remaining binding at 1 µM [1]?
A: The remaining binding at 1 µM was 77%.
